Test results taken from patent EP2787958B1, “CHELIDONIUM MAJUS EXTRACTS AND THEIR USE IN THE TREATMENT OF SKIN DISORDERS AND PROMOTION OF SKIN REGENERATION” (priority 2011, dated 2013).
Where two headings read alike, the source gives them in different places.

Assays:
[1] = test system: Human dermal fibroblasts (HDF); experiment: Mitochondrial dehydrogenase activity (WST-1 formazan assay) in HDF cells; conditions: for Revitalizing agent: 24 hours; for activity at 1 µM / activity at 10 µM: Homo sapiens, Fibroblast, read-out: % mitochondrial dehydrogenase activity ± SD
Description: Human dermal fibroblasts were used for assay at the 3rd T75 passage.
Mitochondrial dehydrogenase activity was measured in HDF, HEK and HUVEC cells by means of the formazan assay, using the WST-1 kit from Roche Diagnostic in accordance with the supplier's instructions. Briefly: the reagent was added (10 µl per well), the incubation was carried out for a further 2 hours or 4 hours, and, at the end of this time, the absorbance was read for 1 s at a wavelength of 450 nm in a Perkin Elmer Victor 2 Wallac microplate reader.
The activity percentage (% mitochondrial dehydrogenase activity) is defined as: % mitochondrial dehydrogenase activity = ((absorbance of treated cells - absorbance of blank) / (absorbance of control - absorbance of blank)) x 100.
The tests were performed with observations after 18 hours, seeding 8,000 cells per well, and after 42 hours, seeding 2,000 cells per well. Furthermore, in order to better analyze the dose/response curves for dihydroberberine, canadine and stylopine, curves were collected at 11 concentrations by seeding 2,000 cells per well with 46 hours incubation.
Dose/response curves are plotted at 6 concentrations. The tests were performed with observations after 24 hours, seeding 8,000 cells per well.

[2] = Anti-radical activity (decay of the DPPH radical); assay type: biochemical; conditions: for Anti-radical (skin protective): 24 hours
Description: With regard to assays aimed at evaluating anti-radical activity, a chemical test was used where the decay of the diphenylpicrylhydrazyl (DPPH) radical is assessed in the absence or in the presence of the test substances. Indeed, the DPPH radical is used to test the ability of substances to act as free radical scavengers. DPPH in solution has a purple colour with a maximum absorbance peak at 517 nm which changes to yellow-colourless when this radical extracts a hydrogen atom from a radical scavenger to give rise to the reduced form DPPH-H. The assay has been conducted in quadruplicate in 96 well microplates (SARSTEDT Tissue Culture Plate 96-well flat bottom cell+). 50 µl of an ethanol solution of the test substance at 2X concentration and then 50 µl of a 200 µM solution of DPPH (MW 168,18, Aldrich 2,2-di(4-tert-octylphenyl)-1-picrylhydrazyl, free radical Lot# MKBF7574V Cat N° 257621-100 mg) have been added to each well of the microplate. A positive control consisting of 0.1 mM vitamin C and a negative control consisting of ethanol alone were included in each microplate. After 30 minutes from the addition of DPPH, photographs of the plates were taken (Canon PowerShot A610 5.0 Mpixels) and read spectrophotometrically at 530 nm.
Based on the analysis of the results reported in Table 9, some substances were selected for further characterisation of their anti-radical activity. For the selected substances, dose-activity curves were obtained and the IC50 value were computed using a non-linear regression model with the Hill equation at variable slope. Such substances had been selected due to both their anti-radical potential and the easiness of their isolation/production. The selection of substances was made in view of cosmetics applications. Moreover their activity on human dermal fibroblasts (HDF) is expected to be useful also for the development of dermatological medications. The selected substances are discussed below.

[3] = test system: HDF cells; experiment: Summary of uses and toxic effects deduced from the cell assays (Table 1); assay type: cell-based, Human
Description: Antiradical (skin protective): this is deduced from the free radical scavenger effects.
Revitalizing: this is deduced from the increased mitochondrial dehydrogenase effect.
Cytoprotective, with regard to oxidative damage (antioxidant, anti-inflammatory and anti-ageing): this is deduced from antagonising the stimulation of IL-1β and/or IL-6 induced by 100 µM H2O2 and from the absence of changes in cell morphology similar to the ones due to cell senescence.
Wound healing: this is deduced from the effect of inhibiting the production of IL-1β and by the effect of stimulating cell proliferation under standard growth conditions.
Cytotoxicity: this is deduced from the effect of reducing mitochondrial dehydrogenase activity or from the presence of morphologies characteristic of cell senescence.
Irritation: this is deduced from the effect of increased production of IL-6 and/or IL-1β under standard growth conditions.
Said uses in the fields of medicine and cosmetics or the toxic effects of the substances of the invention at a given dosage, for 24 hours, are summarized in Table 1 below.

[4] = test system: interleukin 6 (IL-6); experiment: Inflammatory cytokines in cell supernatant (Mosaic ELISA microarray): IL-6; assay type: cell-based, Human; conditions: for IL-6 ng/(ml* No. of cells from photo) ± SD: 24 hours; for IL-6 production (effect in words): 1-10 µM
Description: (§1) The inflammatory cytokines, CD40 ligand (CD40L), interferon γ (INF-γ), interleukin 1α (IL-1α), interleukin 1β (IL-1β), interleukin 6 (IL-6), interleukin 8 (IL-8), interleukin 17 (IL-17) and tumour necrosis factor α (TNF-α) were determined qualitatively and quantitatively. Each measurement was performed in duplicate using a Mosaic™ ELISA protein microarray assay system from R&D System in accordance with the supplier's instructions. Furthermore, with the aim of obtaining a correlation model between light signal intensity and cytokine concentration, a calibration curve using 6 concentrations was performed for each of them. Analysis of the data was performed using the dedicated Q-View™ Imager software package from Quansys Biosciences

[5] = test system: HDF cells; experiment: Evaluation of cell proliferation (counting of Sirius Red stained cells in photographs); conditions: for No. of cells from photo ± SD: 24 hours
[6] = test system: collagen produced by HDF cells; experiment: Quantity of collagen produced by the cells (elution of Sirius Red); conditions: 1-10 µM (1 µM and 10 µM)
[7] = test system: interleukin 1β (IL-1β); experiment: Inflammatory cytokines in cell supernatant (Mosaic ELISA microarray): IL-1β; assay type: cell-based, Human; conditions: for IL-1β ng/(ml* No. of cells from photo) ± SD: 24 hours; for IL-1β production (effect in words): 1-10 µM
Description: as §1

[8] = Dose 1 µm (coptisine: 1 pm [sic])
[9] = Dose 1 µm (coptisine: 1 pm [sic]), 24 hours

c1cc2c(c3c1C[C@H]1c4cc5c(cc4CCN1C3)OCO5)OCO2 [stylopine]
concentrations below which no significant effects on mitochondrial dehydrogenase activity are shown [1]: below 1 µM
mitochondrial dehydrogenase activity (effect in words) ([1]; 10 µM, exposure time 42 h): increased with respect to the control
mitochondrial dehydrogenase activity (effect in words) ([1]; 100 µM): less marked stimulation of mitochondrial dehydrogenase activity
Revitalizing agent [1, 8]: Yes**
Revitalizing agent ([1]; Dose 10 µm): Yes
activity at 1 µM ([1]; 18 h): 105 ± 9.5%
activity at 10 µM ([1]; 18 h): 107 ± 3%
activity at 1 µM ([1]; 42 h): 100 ± 15.8%
activity at 10 µM ([1]; 42 h): 151 ± 12.8%
activity at 1 µM ([1]; 46 h): 95.7%
activity at 10 µM ([1]; 46 h): 138 ± 23.9%
mitochondrial dehydrogenase activity (effect in words) ([1]; between 1 and 100 µM, exposure time 18 h): non-significant tendency to stimulate mitochondrial dehydrogenase activity in a dose-dependent manner
mitochondrial dehydrogenase activity (effect in words) ([1]; fibroblast cells, higher doses): inhibit mitochondrial dehydrogenase activity
mitochondrial dehydrogenase activity (effect in words) ([1]; fibroblast cells, low dosage): stimulate mitochondrial dehydrogenase activity
% DPPH activity ([2]; 1 mM, 30 minutes): 113%
Anti-radical (skin protective) [2, 8]: No
Anti-radical (skin protective) ([2]; Dose 10 µm): No
Cytotoxic [3]: No
Irritant [3]: No
Anti-fibrotic (prevention of scar formation, also from acne) [3, 9]: Yes (↓collagen, ↓IL-6, ↓IL-1β)
Cytoprotective (antioxidant, anti-inflammatory and anti-ageing; useful also in the treatment of acne) [3, 9]: Yes (↓IL-6, ↓IL-1β)
Wound-healing [3, 9]: Yes (↑profil)
Anti-fibrotic (prevention of scar formation, also from acne) ([3]; Dose 10 µm, 24 hours): Yes (↓collagen, ↓IL-6. ↓IL-1β)
Cytoprotective (antioxidant, anti-inflammatory and anti-ageing; useful also in the treatment of acne) ([3]; Dose 10 µm, 24 hours): Yes (↓IL-6, ↓IL-1β)
Cytotoxic ([3]; Dose 10 µm, 24 hours): No
Irritant ([3]; Dose 10 µm, 24 hours): No
Wound-healing ([3]; Dose 10 µm, 24 hours): No
concentrations at which no toxic (cytotoxic and irritant) effects are shown ([3]; exposure for 24 hours): less than or equal to 10 µM
IL-6 ng/(ml* No. of cells from photo) ± SD ([4]; 1 µM, 34 ng/ml TGF-β1): 447±8 ng/(ml* No. of cells from photo)
IL-6 ng/(ml* No. of cells from photo) ± SD ([4]; 1 µM, 100 µM H2O2): 583±25 ng/(ml* No. of cells from photo)
IL-6 ng/(ml* No. of cells from photo) ± SD ([4]; 1 µM, Standard conditions): 868±62 ng/(ml* No. of cells from photo)
IL-6 ng/(ml* No. of cells from photo) ± SD ([4]; 10 µM, 34 ng/ml TGF-β1): 528±33 ng/(ml* No. of cells from photo)
IL-6 ng/(ml* No. of cells from photo) ± SD ([4]; 10 µM, 100 µM H2O2): 449±2 ng/(ml* No. of cells from photo)
IL-6 ng/(ml* No. of cells from photo) ± SD ([4]; 10 µM, Standard conditions): 961±38 ng/(ml* No. of cells from photo)
IL-6 production (effect in words) ([4]; 34 ng/ml TGF-β1): antagonizes the production of IL-6
IL-6 production (effect in words) ([4]; 100 µM H2O2): antagonizes the production of IL-6
IL-6 production (effect in words) ([4]; standard conditions): inhibits the production of IL-6
cell proliferation (effect in words) ([5]; 1 µM): tendency to stimulate cell proliferation
No. of cells from photo ± SD ([5]; 1 µM, 34 ng/ml TGF-β1): 237±19
No. of cells from photo ± SD ([5]; 1 µM, 100 µM H2O2): 240±12
No. of cells from photo ± SD ([5]; 1 µM, Standard conditions): 234± 7
No. of cells from photo ± SD ([5]; 10 µM, 34 ng/ml TGF-β1): 210±17
No. of cells from photo ± SD ([5]; 10 µM, 100 µM H2O2): 249±8
No. of cells from photo ± SD ([5]; 10 µM, Standard conditions): 183±12
collagen production (effect in words) ([6]; 34 ng/ml TGF-β1): antagonizes the stimulation of collagen induced by 34 ng/ml TGF-β1
collagen production (effect in words) ([6]; 100 µM H2O2): tendency to inhibit collagen production
IL-1β ng/(ml* No. of cells from photo) ± SD ([7]; 1 µM, 34 ng/ml TGF-β1): 97±3 ng/(ml* No. of cells from photo)
IL-1β ng/(ml* No. of cells from photo) ± SD ([7]; 1 µM, 100 µM H2O2): 100±4 ng/(ml* No. of cells from photo)
IL-1β ng/(ml* No. of cells from photo) ± SD ([7]; 1 µM, Standard conditions): 159±10 ng/(ml* No. of cells from photo)
IL-1β ng/(ml* No. of cells from photo) ± SD ([7]; 10 µM, 34 ng/ml TGF-β1): 109±14 ng/(ml* No. of cells from photo)
IL-1β ng/(ml* No. of cells from photo) ± SD ([7]; 10 µM, 100 µM H2O2): 88±10 ng/(ml* No. of cells from photo)
IL-1β ng/(ml* No. of cells from photo) ± SD ([7]; 10 µM, Standard conditions): 186±7 ng/(ml* No. of cells from photo)
IL-1β production (effect in words) ([7]; 34 ng/ml TGF-β1): antagonizes the production of IL-1β
IL-1β production (effect in words) ([7]; 100 µM H2O2): antagonizes the production of IL-1β
IL-1β production (effect in words) ([7]; standard conditions): inhibits the production of IL-1β
